# Experiments:
# AIM2 inflammasome = target: T1, AIM2 inflammasome (Mus musculus, UniProt Q91VJ1); test: Inhibition of AIM2 inflammasome; assay type: cell-based; settings: LPS 1 μg/mL, poly(dA:dT) 4 μg/mL 4 h; 1 at 3 and 10 μM, 8 at 10 μM
# T1 sequence (Q91VJ1 1-354): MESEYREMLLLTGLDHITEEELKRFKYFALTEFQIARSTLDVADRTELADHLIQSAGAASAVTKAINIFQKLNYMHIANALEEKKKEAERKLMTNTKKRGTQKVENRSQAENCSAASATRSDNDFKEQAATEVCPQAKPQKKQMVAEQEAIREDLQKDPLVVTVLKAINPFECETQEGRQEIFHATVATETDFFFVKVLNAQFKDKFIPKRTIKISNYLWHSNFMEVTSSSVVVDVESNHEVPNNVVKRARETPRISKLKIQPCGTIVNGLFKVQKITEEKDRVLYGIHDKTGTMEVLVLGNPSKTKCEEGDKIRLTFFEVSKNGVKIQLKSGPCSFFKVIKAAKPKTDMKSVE
# NLRC4 inflammasome = NLRC4 inflammasome (Mus musculus, UniProt Q3UP24); test: Inhibition of NLRC4 inflammasome; assay type: cell-based; settings: LPS 1 μg/mL, flagellin 1 μg/mL 6 h; 1 at 3 and 10 μM, 8 at 10 μM
# Sequence of NLRC4 inflammasome (Q3UP24 whole entry): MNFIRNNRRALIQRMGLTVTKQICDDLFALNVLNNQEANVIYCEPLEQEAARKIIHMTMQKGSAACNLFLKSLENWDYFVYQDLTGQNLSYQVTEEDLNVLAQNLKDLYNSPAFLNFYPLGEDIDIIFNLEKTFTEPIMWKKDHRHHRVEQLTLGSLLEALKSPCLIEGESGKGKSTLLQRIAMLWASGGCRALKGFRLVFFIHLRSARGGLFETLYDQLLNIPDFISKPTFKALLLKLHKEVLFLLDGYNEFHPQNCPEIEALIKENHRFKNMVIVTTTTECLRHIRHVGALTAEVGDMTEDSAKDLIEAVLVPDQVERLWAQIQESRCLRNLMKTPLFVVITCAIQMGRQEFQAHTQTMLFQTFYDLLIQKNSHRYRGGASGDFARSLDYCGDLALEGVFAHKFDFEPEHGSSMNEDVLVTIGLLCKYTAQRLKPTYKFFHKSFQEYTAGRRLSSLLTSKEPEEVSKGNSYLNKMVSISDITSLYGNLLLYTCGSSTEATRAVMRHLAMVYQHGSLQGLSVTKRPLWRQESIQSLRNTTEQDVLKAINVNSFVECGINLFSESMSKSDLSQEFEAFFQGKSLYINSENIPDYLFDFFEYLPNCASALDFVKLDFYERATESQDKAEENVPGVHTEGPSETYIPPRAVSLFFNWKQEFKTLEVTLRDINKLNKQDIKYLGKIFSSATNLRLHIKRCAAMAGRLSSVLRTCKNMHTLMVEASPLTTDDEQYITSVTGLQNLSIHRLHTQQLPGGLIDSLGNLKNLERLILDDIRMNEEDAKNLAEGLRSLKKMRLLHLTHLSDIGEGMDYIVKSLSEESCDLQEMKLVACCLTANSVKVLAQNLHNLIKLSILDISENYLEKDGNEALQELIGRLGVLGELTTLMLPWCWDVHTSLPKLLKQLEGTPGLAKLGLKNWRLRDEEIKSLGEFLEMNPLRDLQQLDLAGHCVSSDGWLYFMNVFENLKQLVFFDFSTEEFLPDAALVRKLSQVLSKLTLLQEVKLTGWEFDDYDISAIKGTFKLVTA
# priming by LPS (TNF-α) = test: LPS priming step, TNF-α in J774A.1 culture media by ELISA; assay type: cell-based, mouse; settings: concentrations ≤ 3 μM
# NLRP3 inflammasome [1] = target: NLRP3 inflammasome (Mus musculus, UniProt Q8R4B8); settings: IL-1β release, LPS/ATP
# Sequence of NLRP3 inflammasome (Mus musculus, UniProt Q8R4B8) (Q8R4B8 whole entry): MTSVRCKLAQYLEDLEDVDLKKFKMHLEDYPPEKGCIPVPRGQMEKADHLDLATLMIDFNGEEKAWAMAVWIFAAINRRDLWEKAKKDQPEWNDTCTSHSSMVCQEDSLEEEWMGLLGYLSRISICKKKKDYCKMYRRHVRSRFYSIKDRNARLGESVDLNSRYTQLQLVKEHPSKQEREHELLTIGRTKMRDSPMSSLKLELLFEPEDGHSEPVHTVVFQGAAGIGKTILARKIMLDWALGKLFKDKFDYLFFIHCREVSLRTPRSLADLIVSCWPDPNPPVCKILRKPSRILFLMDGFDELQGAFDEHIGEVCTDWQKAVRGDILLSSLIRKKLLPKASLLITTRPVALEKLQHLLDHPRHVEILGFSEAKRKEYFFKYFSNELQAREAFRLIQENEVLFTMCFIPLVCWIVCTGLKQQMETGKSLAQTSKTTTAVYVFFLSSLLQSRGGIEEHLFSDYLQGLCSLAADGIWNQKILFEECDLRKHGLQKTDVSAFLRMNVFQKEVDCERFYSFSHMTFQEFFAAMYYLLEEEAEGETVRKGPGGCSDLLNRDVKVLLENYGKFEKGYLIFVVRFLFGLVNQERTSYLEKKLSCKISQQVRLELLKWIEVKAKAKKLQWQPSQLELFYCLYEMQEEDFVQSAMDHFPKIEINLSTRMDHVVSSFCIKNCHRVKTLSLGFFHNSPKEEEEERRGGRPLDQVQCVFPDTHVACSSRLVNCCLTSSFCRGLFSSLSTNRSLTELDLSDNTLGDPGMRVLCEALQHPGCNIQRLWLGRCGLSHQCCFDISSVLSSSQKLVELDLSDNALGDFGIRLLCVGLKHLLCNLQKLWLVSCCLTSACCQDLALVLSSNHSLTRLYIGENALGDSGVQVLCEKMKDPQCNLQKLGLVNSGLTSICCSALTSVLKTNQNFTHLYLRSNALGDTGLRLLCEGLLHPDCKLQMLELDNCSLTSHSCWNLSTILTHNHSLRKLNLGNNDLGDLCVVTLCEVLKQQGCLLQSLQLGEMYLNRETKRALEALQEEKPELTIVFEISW
# AD animal models = settings: cited from earlier work
# [2] = earlier work of the authors; cited from earlier work
# [3] = target: human recombinant NLRP3 protein; settings: cited from earlier work
# NLRP3 inflammasome [4] = settings: read-out: IC50 (potency as NLRP3 inhibitor); cited from earlier work
compound,measurement,setting,value
"CCCOc1ccc(Cl)cc1Cn1cc(-c2ccccc2)nn1 [Compound 1, 1-(5-chloro-2-propoxybenzyl)-4-phenyl-1H-1,2,3-triazole]",inhibition of the AIM2 inflammasome,AIM2 inflammasome,only observed for the NLRC4 and AIM2 inflammasomes at higher concentrations
same,inhibition of the NLRC4 inflammasome,NLRC4 inflammasome,only observed for the NLRC4 and AIM2 inflammasomes at higher concentrations
same,interference with the priming by LPS,priming by LPS (TNF-α),did not show interference
"CCCOc1ccc(Cl)cc1Cn1cc(-c2ccc(S(N)(=O)=O)cc2)nn1 [Compound 2, 4-(1-(5-chloro-2-propoxybenzyl)-1H-1,2,3-triazol-4-yl)benzenesulfonamide]",inhibitory potency compared to 1,NLRP3 inflammasome [1],comparable potency
"CCCOc1ccc(Cl)cc1Cn1cc(-c2ccc(C(=O)O)cc2)nn1 [Compound 7, 4-(1-(5-chloro-2-propoxybenzyl)-1H-1,2,3-triazol-4-yl)benzoic acid]",lower potency compared to 6,NLRP3 inflammasome [1],~ 10 fold
"COC(=O)c1ccc(-c2cn(Cc3cc(Cl)ccc3OC)nn2)cc1 [Compound 8, Methyl 4-(1-(5-chloro-2-methoxybenzyl)-1H-1,2,3-triazol-4-yl)benzoate]",inhibition of the AIM2 inflammasome,AIM2 inflammasome,did not show inhibitory effects
same,inhibition of the NLRC4 inflammasome,NLRC4 inflammasome,did not show inhibitory effects
"COC(=O)c1cccc(-c2cn(Cc3cc(Cl)ccc3OC)nn2)c1 [Compound 11, Methyl 3-(1-(5-chloro-2-methoxybenzyl)-1H-1,2,3-triazol-4-yl)benzoate]",inhibitory potency compared to 8,NLRP3 inflammasome [1],decrease of inhibitory potency
"COc1ccc(Cl)cc1Cn1cc(-c2ccc(C(=O)O)cc2)nn1 [Compound 12, 4-(1-(5-chloro-2-methoxybenzyl)-1H-1,2,3-triazol-4-yl)benzoic acid]",inhibitory potency compared to 8,NLRP3 inflammasome [1],significantly less potent
"CNC(=O)c1ccc(-c2cn(Cc3cc(Cl)ccc3OC)nn2)cc1 [Compound 13, 4-(1-(5-chloro-2-methoxybenzyl)-1H-1,2,3-triazol-4-yl)-N-methylbenzamide]",inhibitory potency compared to 8,NLRP3 inflammasome [1],decreased inhibitory potency
"COc1ccc(Cl)cc1Cn1cc(-c2ccc(C(=O)N3CCC3)cc2)nn1 [Compound 14, Azetidin-1-yl(4-(1-(5-chloro-2-methoxybenzyl)-1H-1,2,3-triazol-4-yl)phenyl)methanone]",inhibitory potency compared to 8,NLRP3 inflammasome [1],decreased inhibitory potency
"COC(=O)c1ccc(-c2cn(Cc3cc(Cl)ccc3OC)nn2)c(C)c1 [Compound 15, Methyl 4-(1-(5-chloro-2-methoxybenzyl)-1H-1,2,3-triazol-4-yl)-3-methylbenzoate]",decrease in inhibitory potency compared to 8,NLRP3 inflammasome [1],3–4 fold
"COC(=O)c1ccc(-c2cn(Cc3cc(Cl)ccc3OC)nn2)c(F)c1 [Compound 16, Methyl 4-(1-(5-chloro-2-methoxybenzyl)-1H-1,2,3-triazol-4-yl)-3-fluorobenzoate]",decrease in inhibitory potency compared to 8,NLRP3 inflammasome [1],3–4 fold
"COC(=O)c1ccc(-c2cn(Cc3ccccc3)nn2)cc1 [Compound 24, Methyl 4-(1-benzyl-1H-1,2,3-triazol-4-yl)benzoate]",inhibitory potency compared to 8,NLRP3 inflammasome [1],~3–7-fold decrease or complete loss of potency
"COC(=O)c1ccc(-c2cn(Cc3ccccc3OC)nn2)cc1 [Compound 25, Methyl 4-(1-(2-methoxybenzyl)-1H-1,2,3-triazol-4-yl)benzoate]",inhibitory potency compared to 8,NLRP3 inflammasome [1],~3–7-fold decrease or complete loss of potency
"COC(=O)c1ccc(-c2cn(Cc3cccc(Cl)c3)nn2)cc1 [Compound 26, Methyl 4-(1-(3-chlorobenzyl)-1H-1,2,3-triazol-4-yl)benzoate]",inhibitory potency compared to 8,NLRP3 inflammasome [1],~3–7-fold decrease or complete loss of potency
"COC(=O)c1ccc(-c2cn(Cc3cc(Cl)ccc3O)nn2)cc1 [Compound 27, Methyl 4-(1-(5-chloro-2-hydroxybenzyl)-1H-1,2,3-triazol-4-yl)benzoate]",decrease in inhibitory potency compared to 8,NLRP3 inflammasome [1],~ 5 fold
"COC(=O)c1ccc(-c2cn(Cc3cc(Cl)cc(OC)c3)nn2)cc1 [Compound 28, Methyl 4-(1-(3-chloro-5-methoxybenzyl)-1H-1,2,3-triazol-4-yl)benzoate]",inhibitory potency compared to 8,NLRP3 inflammasome [1],comparable potency
"COC(=O)c1ccc(-c2cn(Cc3cc(F)ccc3OC)nn2)cc1 [Compound 32, Methyl 4-(1-(5-fluoro-2-methoxybenzyl)-1H-1,2,3-triazol-4-yl)benzoate]",decrease in inhibitory potency compared to 8,NLRP3 inflammasome [1],2–3 fold
"COC(=O)c1ccc(-c2cn(Cc3cc(Br)ccc3OC)nn2)cc1 [Compound 33, Methyl 4-(1-(5-bromo-2-methoxybenzyl)-1H-1,2,3-triazol-4-yl)benzoate]",decrease in inhibitory potency compared to 8,NLRP3 inflammasome [1],2–3 fold
"COC(=O)c1ccc(-c2cn(Cc3cc(C(F)(F)F)ccc3OC)nn2)cc1 [Compound 34, Methyl 4-(1-(2-methoxy-5-(trifluoromethyl)benzyl)-1H-1,2,3-triazol-4-yl)benzoate]",inhibitory potency compared to 8,NLRP3 inflammasome [1],comparable potency
CNS(=O)(=O)c1ccc(CCNC(=O)c2cc(Cl)ccc2OC)cc1 [JC124],in vivo efficacy,AD animal models,in vivo efficacy
same,metabolism / metabolic stability in mouse liver microsomes,[2],relatively better metabolic stability
C#CCNS(=O)(=O)c1ccc(CCN(Cc2cc(Cl)ccc2OCCC)C(=O)Cc2ccsc2)cc1 [YQ128],Kd,[3],117 nM
same,IC50,NLRP3 inflammasome [4],300 ± 10 nM
same,metabolism / metabolic stability in mouse liver microsomes,[2],rapid metabolism
